Assay results as given in patent publication US6716822B2, “Therapeutic agent for ischemia which inhibits apoptosis under ischemic condition” (priority 2000, dated 2004).

Key:
Sprague-Dawley rats = experiment: Effect of antibiotics on ischemic cells: rat left anterior descending artery ligature, infarct/ischemic area by Evans blue/TTC staining; format: in vivo; settings: 45 mg/kg peritoneally, LAD ligature 2 hours
[1] = Acute toxicity test, subcutaneous injection; settings: mouse, in vivo, sc, male C57BL/6 mice, dead mice counted through 1-7 days
Description: All antibiotics used in the present invention, except for an aminoglycoside antibiotic of geneticin, were not subject to acute toxicity tests since they have been clinically approved for their safety. In case of geneticin, after subcutaneously injecting geneticin into male C57BL/6 mice, dead mice were counted through 1-7 days.

SMILES: C[C@H]1c2cccc(O)c2C(=O)C2=C(O)[C@]3(O)C(=O)C(C(N)=O)=C(O)[C@@H](N(C)C)[C@@H]3[C@@H](O)[C@@H]21 [doxycycline]
- AR/LV (percentage of ischemic area per cross-sectional area of heart) (Sprague-Dawley rats): 41.8 ± 4.3%
- IS/(IS + AR) (percentage of infarct area per sum of infarct and ischemic area) (Sprague-Dawley rats): 29.3 ± 4.2%
- IS/LV (percentage of infarct area per cross-sectional area of heart) (Sprague-Dawley rats): 16.9 ± 2.5%

SMILES: CN[C@@H]1[C@@H](O)[C@@H](O[C@@H]2[C@@H](O)[C@H](O[C@H]3O[C@H]([C@@H](C)O)[C@@H](O)[C@H](O)[C@H]3N)[C@@H](N)C[C@H]2N)OC[C@]1(C)O [geneticin]
- LD50 [1]: ~3800 mg/kg
- AR/LV (percentage of ischemic area per cross-sectional area of heart) (Sprague-Dawley rats): 40.0 ± 4.1%
- IS/(IS + AR) (percentage of infarct area per sum of infarct and ischemic area) (Sprague-Dawley rats): 24.6 ± 2.1%
- IS/LV (percentage of infarct area per cross-sectional area of heart) (Sprague-Dawley rats): 12.5 ± 1.8%
